These results are taken from patent publication US20250276996A1, “CATIONICALLY-ENFRAMED HIGH DENSITY AROMATIC PEPTIDES” (Research Foundation of the City University of New York, priority 2022, published 2025).

Structures are written as SMILES. “Also recorded” adds a separate entry of the source. Non-standard residues stand in square brackets, D forms with d. Residues, ends and D or L forms follow the SMILES beside them. *: point of attachment. Biotin = O=C1N[C@H]2[C@H](CS[C@H]2CCCCC(=O)*)N1

For series [1], the system named is MDBK cells. As to conditions: dilutions up 100 μM.
Series [2] in a line: Displacement of nonyl acridine orange (NAO) from POPC-CL liposomes. The series is classed as binding, bovine. The protocol: (§1) The resulting multilamellar vesicles were vortexed lightly and sized into small unilamellar vesicles by heated bath sonication for 25 min. All liposomes were cooled to ambient temperature before use.
Interaction of biotin-HDAP2 Peptide with Phospholipids: The ability of biotin-HDAP2 to displace nonyl acridine orange (NAO), a fluoroprobe known to selectively bind CL was determined. Interaction of biotin-HDAP2 with phospholipids was examined by measuring changes in the fluorescence spectra of 3 μM NAO (Molecular Devices, Sunnyvale, CA)) with excitation at 480 nm. CL and POPC in liposomes were use at 30 μM. Dose response curves were done with 30 μM CL, biotin-HDAP2 (0, 2.5, 5, 10, 20, and 30 μM), and 3 μM of NAO (ex/em at 480 nm/520 nm). All experiments were done in 10 mM Hepes (pH 7.4) to optimize electrostatic interactions of peptides with phospholipids.

Series [3] can be described thus: Nile Red fluorescence shift in POPC-CL liposomes. The series is classed as binding, bovine. The note with it: 638 nm before the shift. The protocol:
as §1
Interactions between biotin-HDAP2 and Phospholipid liposomes measured by Nile Red fluorescence: The hydrophobicity of biotin-HDAP2 and phospholipids was examined by changes in the spectral fluorescence shift and intensity of Nile Red (NR, 10 μM). NR increases its intensity of fluorescence when combined with the hydrophobic environments of acyl chains of phospholipids, and produces a blue shift when hydrophobicity is increased. All experiments were done with 30 μM of either CL or POPC and 30 μM of biotin-HDAP2 in 10 mM Hepes (pH 7.4) to optimize the electrostatic interactions of peptides with phospholipids. The solvents used to dissolve the various phospholipids (chloroform, methanol, and ethanol) had negligible effects on the fluorescence spectra.

Series [4] relates to MDBK cells. Briefly: Mitochondrial membrane potential in serum-starved cells (MitoTracker Red). The series is classed as cell-based, bovine. On the procedure: MDBK cells incubated in serum free media for 5-7 days in the presence or absence of 1 μM of biotin-HDAP2. At the end of the incubation period 100 nM MitoTracker was added to the cells and incubated for 15 minutes. Then, media was removed and cells were fixed in 4% PFA. Cells were then visualized using a fluorescent microscope (Nikon Eclipse-ci-SRS). Experiments were conducted 5 times in triplicate for each experimental condition.
To measure the effects of biotin-HDAP2 on the mitochondrial potential and cellular oxidative stress, cells were cultured in DMEM/F12 without fetal bovine serum (FSB) in the presence or absence of biotin-HDAP2 (1 μM). After 3 days, nuclei were labeled with Hoechst 33342 (10 μg/ml) and cells were incubated for 15 minutes at 37° C. with MTR (100 nM) to evaluate the strength of the mitochondrial potential or were incubated with the general oxidative stress indicator CM-H2DCFDA (5 μM, Invitrogen, Carlsbad, CA) for 15 min at 37° C. In each instance, cells were imaged immediately after staining and prior to fixation.
Unless otherwise noted, data for all tissue culture experiments were collected from three independent trials, with each experiment done in triplicate. For each experiment, 4-6 fields of cells were randomly selected and imaged using a Nikon Eclipse 50i fluorescent microscope with a 40X immersion objective (NA 0.8) and using filters specific for either green or red wavelengths as appropriate (ex488 nm/ex515-540 nm). Photooxidation of the indicator dyes were minimized by using single exposures to the fluorescence for each field imaged. Fluorescence intensity was analyzed using ImageJ (NIH), and MTR and CM-H2DCFDA fluorescence were normalized to Hoechst fluorescence to account for differences in cell number in each field. Differences among groups were compared by Student's t-test and P values less than 0.05 were considered significant. All data are expressed as means±SEM.

The test system of series [5] is antimycin-induced scratching. In words: Topical antimycin-induced scratching. It counts as in vivo, C57BL/6J mice. As to conditions: 100 μM topical with 200 μM antimycin, 60 min. The protocol: However, antimycin-induced scratching in mice was […] by biotin-free HDAP2. Dermal administration of antimycin, a mitochondrial Complex III irreversible inhibitor, is known to induce ROS formation and oxidative stress in C fibers of sensory neurons, resulting in severe scratching in mice. Biotin-HDAP2 and biotin-free HDAP2 were tested to see if either can inhibit topical antimycin-induced itching in 12 months old C57BL/6J mice. […] Specifically, 200 μM of topical antimycin in methanol induced itching, which was monitored for 60 min. […] Error bars represent SEM (n=3) **P<0.001. Topical administration of 100 μM of biotin-free HDAP2 with antimycin increased scratching by 2.5 fold. Error bars represent SEM (n=3) ***P<0.0001.

Consider `N=C(N)NCCC[C@@H](NC(=O)[C@H](Cc1ccccc1)NC(=O)[C@H](Cc1ccccc1)NC(=O)[C@@H](CCCNC(=N)N)NC(=O)CCCC[C@@H]1SC[C@@H]2NC(=O)N[C@@H]21)C(N)=O` [biotin-HDAP2, Biotin-dArg-Phe-Phe-dArg-NH2] (Biotin-[dR]FF[dR]-NH2), for which, in the series with MDBK cells [1], the cellular toxicity result was “No toxicity in MDBK cell growth was observed”. The water solubility result in the series “Water solubility” is given as “water soluble”. The “effect on intensity of NAO fluorescence” value in series [2] was “decreased the intensity of NAO fluorescence to background levels; also recorded: decreases the intensity of NAO fluorescence with POPC-CL liposomes in a dose-dependent manner”. In addition, the “Nile Red emission after blue shift” value in series [3] is 618 nm. In addition, in the series on MDBK cells [4] (1 μM, serum free 5-7 days, 100 nM MitoTracker), the “mitochondria membrane potential in starved cells” value is “improved mitochondria membrane potential in starved cells”. Also, the “increase of MitoTracker Red CMXRos fluorescence intensity vs untreated controls” value in the series with MDBK cells [4] (1 μM, serum starvation) is given as “over 2.5 times”. Further, in the series on MDBK cells [4] (1 μM, serum-free 3-4 days), the “increase of mitochondrial membrane potential compared to serum-free control” value stood at 150%. Moreover, in the series with MDBK cells [4] (FIG. 10D), the “improvement of mitochondrial potential” value was 2.5 fold. Besides, in series [5], the “effect on antimycin-induced scratching” value is “inhibited scratching”.
